For 22 molecules, AC50 and IC50 results are on record in US20100022514A1, “Heterocycle Compounds and Methods of Use Thereof” (NORVARTIS AG, priority 2006, published 2010).

The subject of assay [1] is p21 promoter (p21-luc) in H1299 cells. Description: p21 promoter luciferase assay using stably transfected p21-luc in H1299 cells. The conditions noted are these: Homo sapiens, NCI-H1299. Format: cell-based. As to the method: The cell lines used are derived from H1299 (p21-luc). The growth media used is RPMI 1640, 10% FBS, 1% Pen/Strep and the selection media added is 500 μg/mL Geneticin (Gibco). The buffer used is 5× cell culture lysis buffer (Promega #E1531), stored at −20 C and the Luciferase assay reagent (Promega #E1483) is stored at −70° C. The results of the assay are analyzed using Wallac Software.
To assay Luciferase, the cell culture medium is removed after one day of growth and the flasks are washed once with PBS. The cells are trypsinized in 20 mL of media and the trypsin is neutralized. The cells are counted (0.5-1 mL) on a Vi-Cell XR cell viability analyzer.
Cells are then diluted to a concentration of approximately 5000 cells/200 μL, and 190 μL samples are aliquoted into each well of a Costar white 96-well TC treated white bottom plate with lid (Costar #3917). Plates are then incubated overnight at 37 C.
After a further day, a sample of the compound is added to the wells for assay.
After a further day, the cells are lysed and the luciferase activity of the lysed cells is measured. Each well is washed twice with PBS and 20 μL/well of 1× cell culture lysis buffer (dilute 5× to 1× in distilled water) is added to each well. The microtiter plates are then shaken on a microtiter plate shaker for 20 minutes at room temperate at a speed setting of 5-6. After removal from the shaker, 100 μL of Luciferase Reagent is added to each well. Each microtiter plate is then read on Wallac Envision instrument.

The target of assay [2] is T1, HDAC-1 (Homo sapiens, UniProt Q13547).
T1 construct: made in house
T1 sequence (Q13547 whole entry): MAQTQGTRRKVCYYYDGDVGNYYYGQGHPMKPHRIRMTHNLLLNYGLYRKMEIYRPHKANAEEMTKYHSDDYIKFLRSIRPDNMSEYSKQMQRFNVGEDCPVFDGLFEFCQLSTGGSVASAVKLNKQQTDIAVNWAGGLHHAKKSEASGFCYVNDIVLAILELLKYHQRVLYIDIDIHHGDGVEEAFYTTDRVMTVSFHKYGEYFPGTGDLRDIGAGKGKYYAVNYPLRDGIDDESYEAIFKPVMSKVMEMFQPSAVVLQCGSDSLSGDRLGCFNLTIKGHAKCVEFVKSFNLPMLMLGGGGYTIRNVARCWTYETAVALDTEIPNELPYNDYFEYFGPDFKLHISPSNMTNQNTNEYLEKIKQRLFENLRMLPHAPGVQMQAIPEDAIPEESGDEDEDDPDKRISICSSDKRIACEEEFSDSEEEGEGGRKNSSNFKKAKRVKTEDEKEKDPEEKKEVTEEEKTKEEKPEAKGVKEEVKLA
In words: Deacetylase fluorescence assay (HDAC-1). The assay is classed as biochemical. The note with it: read-out: HDAC-1 IC50. As to the method: Conventional methods are used to express deacetylase enzymes and purify them from lysed cells. The following example describes an exemplary procedure, however equivalent procedures are within the scope of the invention.
The cell line used is a derivative of 293 cells overexpressing a fusion of the gene encoding each deacetylase protein with a nucleotide sequence encoding the Flag marker.
Cells are grown in Optimem, 2% Fetal Calf Serum, Pen/Strep. For enzyme preparation, Lysis buffer (IPLS) is 50 mM Tris-HCl, pH 7.5, 120 mM NaCl, 0.5 mM EDTA and 0.5% Nonidet P-40, to which is added one tablet of Protease inhibitors (Roche 11836170001) per 10 ml buffer. Other buffers are IPHS, which is IPLS containing 1 M NaCl; TBS (Sigma #T5912) dilute 10× stock to 1× with dH2O; HD buffer: 10 mM Tris pH 8.0 (1M Stock) 10 mM NaCl (5M Stock), 10% glycerol, and for dialysis: 400 μM PMSF is added (for 2 L: use 8 ml 100 mM Stock). Protease inhibitors (Complete mini, Boehringer Mannheim), 1 tablet/10 mL are added to all buffers but not used in buffers for enzyme assays.
Cells are harvested without using trypsin, and most cells are obtained easily in PBS, with gentle striking or agitation of flasks if necessary. More adherent cells are scraped in PBS. Cells are grown in 500 cm^2 trays, from which about half of the media is aspirated (50 ml total), then cells are scraped in the rest of the media and transferred to a centrifuge tube. Trays are washed with 25 ml cold PBS, scraped again to collect additional cells, and centrifuged at 1500 rpm at 4° C. for 5 min. Cells are washed at least 3 times in PBS to remove growth media, pelleting cells after each wash by centrifugation at 1500 rpm for 5 minutes. After washing, PBS is removed and the resulting cell pellet frozen at −80° C. for storage prior to purification.
For purification, cells are resuspended in lysis buffer, 12 ml of IPLS for cells collected from 10 500 cm trays. Cells are lysed at 4° C. for 3 hrs with rocking, and debris is removed by centrifugation for 20 min at 17,000 rpm in 30 ml centrifuge tubes. If supernatant is not clear afterward, centrifugation of the supernatant is repeated. Protein concentration of the whole cell lysate is determined (generally in the range of about 2-5 mg/ml).
For immunoprecipitation per mg of protein, 15 μL of anti-Flag M2-Agarose Affinity beads (Sigma #A2220) is used. Beads are prepared by washing 3 times with 10× bead volume of PBS and 1 time with IPLS, with centrifugation of the washes at 1500 rpm for 5 min. Whole cell lysate is incubated with the Ab-beads overnight at 4° C. Then beads are centrifuged and washed in 5× volume of the following buffers: three times in IPLS (30 sec at 4° C., spin at 1500 RPM for 5 min); three times in IPHS; and three times in TBS buffer. After each centrifugation, the supernatant is aspirated, leaving the pellet as dry as possible but avoiding sucking up any of the beads.
To elute the enzyme, beads are resuspended in 5× bead volume of TBS with protease inhibitor (Roche 11836170001) 1 tablet/10 mL. Enzyme is eluted with 400 μg/mL Flag peptide (Sigma #F-3290) for 3 hrs at 4° C. on rotator. Then beads are centrifuged, and the supernatant is transferred to a new tube to which is added 1/10 volume of glycerol. The supernatant is transferred to a dialysis cassette (Pierce #66410) using a 3 cc syringe and 18 G needle, and is dialyze sup in 2 L HD buffer for 2 hrs at 4° C. (1 L/hour). The resulting purified deacetylase is divided into aliquots (300 μL/tube), is snap frozen in dry ice bath, and is stored at −80° C.
For assay of deacetylase an assay based on Deacetylase Fluorescent Activity Assay/Drug Discovery Kit (BioMol # AK500) is used, however any equivalent deacetylase assay is within the scope of the invention.
The Fluorescent Assay Buffer (FAB) contains: 25 mM Tris-HCl, pH 8.0, 137 mM NaCl, 2.7 mM KCl and 1 mM MgCl2. […]

In the case of `O=C(/C=C/c1ccc2c(c1)CN(Cc1ccccc1)C2)NO` [Example 1, (E)-3-(2-Benzyl-2,3-dihydro-1H-isoindol-5-yl)-N-hydroxy-acrylamide], the concentration at half-maximal activity (AC50) in assay [1] was greater than 1000 nM. The IC50 in assay [2] lay within 100 to 1000 nM.
The molecule `CC(C)(C)OC(=O)N1Cc2ccc(/C=C/C(=O)NO)cc2C1` [Example 2, 5-((E)-2-Hydroxycarbamoyl-vinyl)-1,3-dihydro-isoindole-2-carboxylic acid tert-butyl ester] yielded an AC50 in assay [1] greater than 1000 nM. In addition, the IC50 in assay [2] was 100 to 1000 nM.
The like results for `CC(C)(C)C(=O)N1Cc2ccc(/C=C/C(=O)NO)cc2C1` [Example 3, (E)-3-[2-(2,2-Dimethyl-propionyl)-2,3-dihydro-1H-isoindol-5-yl]-N-hydroxy-acrylamide] were, in that order, greater than 1000 nM and 100 to 1000 nM.
Taken in the same sequence, the figures for `CS(=O)(=O)N1Cc2ccc(/C=C/C(=O)NO)cc2C1` [Example 4, (E)-N-Hydroxy-3-(2-methanesulfonyl-2,3-dihydro-1H-isoindol-5-yl)-acryl amide] were greater than 1000 nM and 100 to 1000 nM.
Taken in the same sequence, the figures for `O=C(/C=C/c1ccc2c(c1)CN(S(=O)(=O)c1ccccc1)C2)NO` [Example 5, (E)-3-(2-Benzenesulfonyl-2,3-dihydro-1H-isoindol-5-yl)-N-hydroxy-acrylamide] were greater than 1000 nM and 100 to 1000 nM.
Molecule `O=C(/C=C/c1ccc2c(c1)CN(S(=O)(=O)c1ccncc1)C2)NO` [Example 6, (E)-N-Hydroxy-3-[2-(pyridine-4-sulfonyl)-2,3-dihydro-1H-isoindol-5-yl]-acrylamide] displayed an AC50 in assay [1] greater than 1000 nM. Besides, the IC50 in assay [2] is 100 to 1000 nM.
The like results for `O=C(/C=C/c1ccc2c(c1)CN(S(=O)(=O)c1cccnc1)C2)NO` [Example 7, (E)-N-Hydroxy-3-[2-(pyridine-3-sulfonyl)-2,3-dihydro-1H-isoindol-5-yl]-acrylamide] were, in that order, greater than 1000 nM and 100 to 1000 nM.
Taken in the same sequence, the figures for `Cc1ccc(S(=O)(=O)N2Cc3ccc(/C=C/C(=O)NO)cc3C2)cc1` [Example 8, (E)-N-Hydroxy-3-[2-(toluene-4-sulfonyl)-2,3-dihydro-1H-isoindol-5-yl]-acrylamide] were greater than 1000 nM and less than 100 nM.
In assay [1], `COc1ccc(S(=O)(=O)N2Cc3ccc(/C=C/C(=O)NO)cc3C2)cc1` [Example 9, (E)-N-Hydroxy-3-[2-(4-methoxy-benzenesulfonyl)-2,3-dihydro-1H-isoindol-5-yl]-acrylamide] displayed an AC50 greater than 1000 nM. The half-inhibitory concentration (IC50) in assay [2] is less than 100 nM.
Taken in the same sequence, the figures for `O=C(/C=C/c1ccc2c(c1)CN(S(=O)(=O)c1ccc(C(F)(F)F)cc1)C2)NO` [Example 10, (E)-N-Hydroxy-3-[2-(4-trifluoromethyl-benzenesulfonyl)-2,3-dihydro-1H-isoindol-5-yl]-acrylamide] were greater than 1000 nM and 100 to 1000 nM.
The like results for `Cc1cccc(S(=O)(=O)N2Cc3ccc(/C=C/C(=O)NO)cc3C2)c1` [Example 11, (E)-N-Hydroxy-3-[2-(toluene-3-sulfonyl)-2,3-dihydro-1H-isoindol-5-yl]-acrylamide] were, in that order, greater than 1000 nM and less than 100 nM.
The like results for `O=C(/C=C/c1ccc2c(c1)CN(S(=O)(=O)c1cccc(C(F)(F)F)c1)C2)NO` [Example 12, (E)-N-Hydroxy-3-[2-(3-trifluoromethyl-benzenesulfonyl)-2,3-dihydro-1H-isoindol-5-yl]-acrylamide] were, in that order, greater than 1000 nM and 100 to 1000 nM.
For `COc1cccc(S(=O)(=O)N2Cc3ccc(/C=C/C(=O)NO)cc3C2)c1` [Example 13, (E)-N-Hydroxy-3-[2-(3-methoxy-benzenesulfonyl)-2,3-dihydro-1H-isoindol-5-yl]-acrylamide], the AC50 in assay [1] was greater than 1000 nM. In addition, the 50% inhibitory concentration (IC50) in assay [2] was less than 100 nM.
On to `Cc1ccccc1S(=O)(=O)N1Cc2ccc(/C=C/C(=O)NO)cc2C1` [Example 14, (E)-N-Hydroxy-3-[2-(toluene-2-sulfonyl)-2,3-dihydro-1H-isoindol-5-yl]-acrylamide], for which, in assay [1], the concentration at half-maximal activity (AC50) is greater than 1000 nM. In addition, in assay [2], the IC50 lay within 100 to 1000 nM.
`Cn1cnc(S(=O)(=O)N2Cc3ccc(/C=C/C(=O)NO)cc3C2)c1` [Example 15, (E)-N-Hydroxy-3-[2-(1-methyl-1H-imidazole-4-sulfonyl)-2,3-dihydro-1H-isoindol-5-yl]-acrylamide]: in assay [1], the AC50 is greater than 1000 nM. The IC50 in assay [2] was in the range of 100 to 1000 nM.
Taken in the same sequence, the figures for `O=C(/C=C/c1ccc2c(c1)CN(C(=O)c1cccc(C(F)(F)F)c1)C2)NO` [Example 16, (E)-N-Hydroxy-3-[2-(3-trifluoromethyl-benzoyl)-2,3-dihydro-1H-isoindol-5-yl]-acrylamide] were greater than 1000 nM and 100 to 1000 nM.
The like results for `O=C(/C=C/c1ccc2c(c1)CN(C(=O)c1cccnc1)C2)NO` [Example 17, (E)-N-Hydroxy-3-[2-(pyridine-3-carbonyl)-2,3-dihydro-1H-isoindol-5-yl]-acrylamide] were, in that order, greater than 1000 nM and 100 to 1000 nM.
The like results for `O=C(/C=C/c1ccc2c(c1)CN(C(=O)c1cccs1)C2)NO` [Example 18, (E)-N-Hydroxy-3-[2-(thiophene-2-carbonyl)-2,3-dihydro-1H-isoindol-5-yl]-acrylamide] were, in that order, greater than 1000 nM and less than 100 nM.
With `CCCCS(=O)(=O)N1Cc2ccc(/C=C/C(=O)NO)cc2C1` [Example 19, (E)-3-[2-(Butane-1-sulfonyl)-2,3-dihydro-1H-isoindol-5-yl]-N-hydroxy-acrylamide], in assay [1], the AC50 is greater than 1000 nM. For the same molecule, the IC50 in assay [2] lay in the range of 100 to 1000 nM.
Taken in the same sequence, the figures for `O=C(/C=C/c1ccc2c(c1)CN(S(=O)(=O)Cc1ccccc1)C2)NO` [Example 20, (E)-N-Hydroxy-3-(2-phenylmethanesulfonyl-2,3-dihydro-1H-isoindol-5-yl)-acrylamide] were greater than 1000 nM and 100 to 1000 nM.
As to `O=C(/C=C/c1ccc2c(c1)CN(C(=O)C1CCCCC1)C2)NO` [Example 21, (E)-3-(2-Cyclohexanecarbonyl-2,3-dihydro-1H-isoindol-5-yl)-N-hydroxy-acrylamide], the AC50 in assay [1] was greater than 1000 nM. Further, in assay [2], the concentration for half-maximal inhibition (IC50) lay in the range of 100 to 1000 nM.
Taken in the same sequence, the figures for `O=C(/C=C/c1ccc2c(c1)CN(C(=O)C1CCCC1)C2)NO` [Example 22, (E)-3-(2-Cyclopentanecarbonyl-2,3-dihydro-1H-isoindol-5-yl)-N-hydroxy-acrylamide] were greater than 1000 nM and 100 to 1000 nM.

The AC50 is the midpoint of the concentration-response curve, whichever way the signal moves. The IC50 is the point on the concentration scale where inhibition reaches its midpoint.
